PubChem BioAssay AID330 (DTP/NCI, 2004)
Values joined by “and” are separate entries in the source; they are usually repeats but may differ in a detail not shown here. Identical values can stand only once. Inconclusive results and toxic doses are left out.

Test system: P388 leukemia ip, CD2F1 mice, survival T/C
Assay: NCI In Vivo Anticancer Drug Screen. Data for tumor model P388 Leukemia (intraperitoneal) in CD2F1 (CDF1) mice
Conditions: endpoint: median survival time, higher = longer survival
Outline: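 Mice carrying the transplanted tumor received test compound or vehicle. Survival was recorded in each group, and the value is the treated-group measurement divided by that of the vehicle-treated control group.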

[1] = dose: 50.0 mg/kg/injection, schedule: Q01DX005 (ip), vehicle: saline with Tween-80
[2] = dose: 100.0 mg/kg/injection, schedule: Q01DX005 (ip), vehicle: saline with Tween-80
[3] = dose: 200.0 mg/kg/injection, schedule: Q01DX005 (ip), vehicle: saline with Tween-80
[4] = dose: 50.0 mg/kg/injection, schedule: Q01DX009 (ip), vehicle: saline with Tween-80
[5] = dose: 100.0 mg/kg/injection, schedule: Q01DX009 (ip), vehicle: saline with Tween-80
[6] = dose: 60.0 mg/kg/injection, schedule: Q01DX005 (ip), vehicle: saline with Tween-80
[7] = dose: 120.0 mg/kg/injection, schedule: Q01DX005 (ip), vehicle: saline with Tween-80
[8] = dose: 50.0 mg/kg/injection, schedule: Q01DX005 (ip), vehicle: Klucel (hydroxypropylcellulose) (HPC)
[9] = dose: 100.0 mg/kg/injection, schedule: Q01DX005 (ip), vehicle: Klucel (hydroxypropylcellulose) (HPC)
[10] = dose: 200.0 mg/kg/injection, schedule: Q01DX005 (ip), vehicle: Klucel (hydroxypropylcellulose) (HPC)

NC(=S)c1ccccc1[N+](=O)[O-]
T/C (dose: 25.0 mg/kg/injection, schedule: Q01DX001 (ip), vehicle: saline): 104 % of control
T/C (dose: 25.0 mg/kg/injection, schedule: Q01DX001 (ip), vehicle: suspension in saline): 101 % of control
T/C (dose: 50.0 mg/kg/injection, schedule: Q01DX001 (ip), vehicle: saline): 104 % of control
T/C (dose: 50.0 mg/kg/injection, schedule: Q01DX001 (ip), vehicle: suspension in saline): 100 % of control
T/C (dose: 100.0 mg/kg/injection, schedule: Q01DX001 (ip), vehicle: saline): 101 % of control and 104 % of control
T/C (dose: 100.0 mg/kg/injection, schedule: Q01DX001 (ip), vehicle: suspension in saline): 102 % of control
T/C (dose: 200.0 mg/kg/injection, schedule: Q01DX001 (ip), vehicle: suspension in saline): 101 % of control

C/C(N=NC(=S)N1CCN(c2ccccc2)CC1)=C1\C=CC=CN1O
T/C [1]: 103 % of control
T/C [2]: 101 % of control
T/C [3]: 103 % of control

Cc1ccccc1/C=N\N1C(=O)C(C)SC1c1ccccc1C (stereo unspecified)
T/C [4]: 91 % of control
T/C [5]: 93 % of control

CCC(CC)NCCCNc1cc(OC)cc2cccnc12
T/C (dose: 12.5 mg/kg/injection, schedule: Q01DX005 (ip), vehicle: saline): 108 % of control
T/C (dose: 25.0 mg/kg/injection, schedule: Q01DX005 (ip), vehicle: saline): 104 % of control

O=C1NC(O)c2cccc(Br)c2O1 (stereo unspecified)
T/C [1]: 93 % of control
T/C [2]: 107 % of control
T/C [3]: 117 % of control

COC(=O)C12CN(C)CC(C(=O)OC)(C1=O)C(c1ccccc1)OC2c1ccccc1 (stereo unspecified)
T/C [6]: 107 % of control and 98 % of control
T/C [7]: 99 % of control
T/C (dose: 240.0 mg/kg/injection, schedule: Q01DX005 (ip), vehicle: saline with Tween-80): 98 % of control and 90 % of control

CC(=O)N1CCCC2=C1CCCCC2
T/C (dose: 100.0 mg/kg/injection, schedule: Q04DX003 (ip), vehicle: saline): 92 % of control
T/C (dose: 200.0 mg/kg/injection, schedule: Q04DX003 (ip), vehicle: saline): 100 % of control
T/C (dose: 400.0 mg/kg/injection, schedule: Q04DX003 (ip), vehicle: saline): 101 % of control

O=C(CC1(O)C(=O)Nc2c(Cl)cccc21)c1cccs1 (stereo unspecified)
T/C [8]: 103 % of control
T/C [9]: 100 % of control
T/C [10]: 104 % of control

NC12CCC(N)(c3ccccc31)c1ccccc12
T/C (dose: 60.0 mg/kg/injection, schedule: Q01DX005 (ip), vehicle: Klucel (hydroxypropylcellulose) (HPC)): 93 % of control
T/C (dose: 120.0 mg/kg/injection, schedule: Q01DX005 (ip), vehicle: Klucel (hydroxypropylcellulose) (HPC)): 98 % of control
T/C (dose: 240.0 mg/kg/injection, schedule: Q01DX005 (ip), vehicle: Klucel (hydroxypropylcellulose) (HPC)): 98 % of control

C=CCSCC1Nc2cc(Cl)c(S(N)(=O)=O)cc2S(=O)(=O)N1C (stereo unspecified)
T/C [1]: 100 % of control
T/C [2]: 105 % of control
T/C [3]: 101 % of control

COc1ccc(C2(C)C(C#N)(C#N)C2(C#N)C#N)cc1
T/C (dose: 18.75 mg/kg/injection, schedule: Q01DX009 (ip), vehicle: saline): 103 % of control
T/C (dose: 37.5 mg/kg/injection, schedule: Q01DX009 (ip), vehicle: saline): 100 % of control
T/C (dose: 75.0 mg/kg/injection, schedule: Q01DX009 (ip), vehicle: saline): 116 % of control
T/C (dose: 150.0 mg/kg/injection, schedule: Q01DX009 (ip), vehicle: saline): 111 % of control

c1ccc(-c2c[s+]c(-c3ccccc3)s2)cc1
T/C (dose: 6.25 mg/kg/injection, schedule: Q01DX009 (ip), vehicle: distilled water + Tween-80): 117 % of control
T/C (dose: 12.5 mg/kg/injection, schedule: Q01DX009 (ip), vehicle: distilled water + Tween-80): 100 % of control
T/C (dose: 25.0 mg/kg/injection, schedule: Q01DX009 (ip), vehicle: distilled water + Tween-80): 90 % of control
T/C (dose: 50.0 mg/kg/injection, schedule: Q01DX009 (ip), vehicle: distilled water + Tween-80): 99 % of control
T/C (dose: 100.0 mg/kg/injection, schedule: Q01DX009 (ip), vehicle: distilled water + Tween-80): 97 % of control

Cc1ncc([N+](=O)[O-])n1CCOC(=O)c1ccc(F)cc1
T/C [4]: 99 % of control
T/C [5]: 92 % of control
T/C (dose: 200.0 mg/kg/injection, schedule: Q01DX009 (ip), vehicle: saline with Tween-80): 97 % of control

O=C(Nc1ccc(NC2=NCCN2)cc1)c1ccc(C(=O)Nc2ccc(NC3=NCCN3)cc2)c([N+](=O)[O-])c1
T/C (dose: 1.56 mg/kg/injection, schedule: Q01DX005 (ip), vehicle: Klucel (hydroxypropylcellulose) (HPC)): 116 % of control
T/C (dose: 6.25 mg/kg/injection, schedule: Q01DX005 (ip), vehicle: Klucel (hydroxypropylcellulose) (HPC)): 158 % of control
T/C (dose: 12.5 mg/kg/injection, schedule: Q01DX005 (ip), vehicle: Klucel (hydroxypropylcellulose) (HPC)): 158 % of control

IP1c2ccccc2P2P(I)c3ccccc3P12 (stereo unspecified)
T/C [8]: 102 % of control
T/C [9]: 108 % of control
T/C [10]: 105 % of control

COC(=O)C(N)CN (stereo unspecified)
T/C (dose: 43.75 mg/kg/injection, schedule: Q01DX009 (ip), vehicle: saline with Tween-80): 97 % of control
T/C (dose: 87.5 mg/kg/injection, schedule: Q01DX009 (ip), vehicle: saline with Tween-80): 97 % of control
T/C (dose: 175.5 mg/kg/injection, schedule: Q01DX009 (ip), vehicle: saline with Tween-80): 97 % of control

Cn1cc(F)c(=O)n(C)c1=O
T/C (dose: 30.0 mg/kg/injection, schedule: Q04DX002 (ip), vehicle: saline): 96 % of control
T/C (dose: 60.0 mg/kg/injection, schedule: Q04DX002 (ip), vehicle: saline): 100 % of control
T/C (dose: 120.0 mg/kg/injection, schedule: Q04DX002 (ip), vehicle: saline): 98 % of control
T/C (dose: 125.0 mg/kg/injection, schedule: Q04DX002 (ip), vehicle: saline): 96 % of control
T/C (dose: 240.0 mg/kg/injection, schedule: Q04DX002 (ip), vehicle: saline): 99 % of control
T/C (dose: 250.0 mg/kg/injection, schedule: Q04DX002 (ip), vehicle: saline): 105 % of control

CCCCCCCCCCCCCCCC(=O)N(CC#CCN(CCCN(C)C)C(=O)CCCCCCCCCCCCCCC)CCCN(C)C
T/C (dose: 25.0 mg/kg/injection, schedule: Q01DX009 (ip), vehicle: other): 95 % of control
T/C (dose: 50.0 mg/kg/injection, schedule: Q01DX009 (ip), vehicle: other): 87 % of control

OCC1(c2ccncc2)OCCO1
T/C (dose: 50.0 mg/kg/injection, schedule: Q01DX005 (ip), vehicle: saline): 101 % of control
T/C (dose: 100.0 mg/kg/injection, schedule: Q01DX005 (ip), vehicle: saline): 104 % of control
T/C (dose: 200.0 mg/kg/injection, schedule: Q01DX005 (ip), vehicle: saline): 92 % of control

COc1nc2nc(Cl)cc(C)c2c2ccccc12 (tested in a mixture with another compound)
T/C [1]: 104 % of control
T/C [2]: 104 % of control
T/C [3]: 92 % of control

CC(C)(C)OC(=O)NC(CC(=O)O)C(=O)O (stereo unspecified)
T/C (dose: 50.0 mg/kg/injection, schedule: Q01DX009 (ip), vehicle: saline): 111 % of control
T/C (dose: 100.0 mg/kg/injection, schedule: Q01DX009 (ip), vehicle: saline): 93 % of control
T/C (dose: 200.0 mg/kg/injection, schedule: Q01DX009 (ip), vehicle: saline): 104 % of control

CCCCCN(CCCCC)CC(O)c1ccc(Cl)c2ccccc12 (stereo unspecified)
T/C [1]: 103 % of control
T/C [2]: 106 % of control
T/C [3]: 103 % of control

O=C1CN(C(=O)Nc2ccc(Cl)c(Cl)c2)C(=S)N1
T/C (dose: 6.25 mg/kg/injection, schedule: Q01DX009 (ip), vehicle: Klucel (hydroxypropylcellulose) (HPC)): 88 % of control
T/C (dose: 12.5 mg/kg/injection, schedule: Q01DX009 (ip), vehicle: Klucel (hydroxypropylcellulose) (HPC)): 101 % of control
T/C (dose: 25.0 mg/kg/injection, schedule: Q01DX009 (ip), vehicle: Klucel (hydroxypropylcellulose) (HPC)): 103 % of control and 90 % of control

C[n+]1c(/C=C2/SC=C(c3ccccc3)S2)ccc2ccccc21
T/C (dose: 0.78 mg/kg/injection, schedule: Q04DX002 (ip), vehicle: saline with Tween-80): 102 % of control and 119 % of control
T/C (dose: 1.56 mg/kg/injection, schedule: Q04DX002 (ip), vehicle: saline with Tween-80): 109 % of control and 123 % of control
T/C (dose: 3.12 mg/kg/injection, schedule: Q04DX002 (ip), vehicle: saline with Tween-80): 119 % of control

Cc1nccn1CC(=O)c1ccccc1
T/C [6]: 104 % of control
T/C [7]: 104 % of control
